Key:
[1] = target: Protein kinase C alpha type (Homo sapiens, UniProt P17252); assay: Selectivity interaction (Kinase panel (literature)) EUB0001199aCl PRKCA; conditions: at 1 µM
[2] = target: Mitogen-activated protein kinase kinase kinase kinase 1 (Homo sapiens) (UniProt Q92918); assay: Selectivity interaction (ActivX KiNativ screen (kinase selectivity in THP-1 cell lysates)) EUB0000639a MAP4K1; assay type: subcellular; conditions: lysate, at 0.04 µM
[3] = target: T1, Cyclin-dependent kinase-like 5 (Homo sapiens) (UniProt O76039); assay: Selectivity interaction (KinomeScan (DiscoverX)) EUB0000045b CDKL5
T1 sequence (whole entry): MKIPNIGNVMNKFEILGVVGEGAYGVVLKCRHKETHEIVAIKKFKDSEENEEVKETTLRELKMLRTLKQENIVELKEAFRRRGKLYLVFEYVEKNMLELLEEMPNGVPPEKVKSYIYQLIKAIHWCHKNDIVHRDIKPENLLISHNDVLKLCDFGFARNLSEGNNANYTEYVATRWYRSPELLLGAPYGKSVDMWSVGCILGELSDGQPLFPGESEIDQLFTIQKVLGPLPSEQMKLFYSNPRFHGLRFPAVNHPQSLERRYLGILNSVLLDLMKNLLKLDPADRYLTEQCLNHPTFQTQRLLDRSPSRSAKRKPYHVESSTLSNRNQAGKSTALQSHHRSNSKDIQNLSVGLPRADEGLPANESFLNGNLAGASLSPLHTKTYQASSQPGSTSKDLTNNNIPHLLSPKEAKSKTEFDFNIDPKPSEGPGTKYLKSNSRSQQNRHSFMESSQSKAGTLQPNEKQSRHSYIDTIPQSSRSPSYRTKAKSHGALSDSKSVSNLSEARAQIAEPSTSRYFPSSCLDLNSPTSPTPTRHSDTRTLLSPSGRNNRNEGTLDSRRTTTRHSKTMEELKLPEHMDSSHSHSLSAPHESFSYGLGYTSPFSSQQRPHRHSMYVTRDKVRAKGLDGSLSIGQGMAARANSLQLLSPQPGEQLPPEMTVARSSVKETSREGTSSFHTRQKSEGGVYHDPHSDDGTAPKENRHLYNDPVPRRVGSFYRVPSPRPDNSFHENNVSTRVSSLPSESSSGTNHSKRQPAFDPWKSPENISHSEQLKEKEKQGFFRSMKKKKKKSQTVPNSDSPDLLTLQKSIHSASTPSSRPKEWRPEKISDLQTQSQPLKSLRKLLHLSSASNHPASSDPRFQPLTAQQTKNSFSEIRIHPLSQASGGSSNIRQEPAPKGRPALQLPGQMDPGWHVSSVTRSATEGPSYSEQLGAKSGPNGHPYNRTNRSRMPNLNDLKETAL

[4] = target: T2, Rhodopsin kinase GRK1 (Homo sapiens) (UniProt Q15835); assay: Selectivity interaction (KinomeScan (DiscoverX)) EUB0001619a GRK1; conditions: at 1 µM
T2 sequence (whole entry): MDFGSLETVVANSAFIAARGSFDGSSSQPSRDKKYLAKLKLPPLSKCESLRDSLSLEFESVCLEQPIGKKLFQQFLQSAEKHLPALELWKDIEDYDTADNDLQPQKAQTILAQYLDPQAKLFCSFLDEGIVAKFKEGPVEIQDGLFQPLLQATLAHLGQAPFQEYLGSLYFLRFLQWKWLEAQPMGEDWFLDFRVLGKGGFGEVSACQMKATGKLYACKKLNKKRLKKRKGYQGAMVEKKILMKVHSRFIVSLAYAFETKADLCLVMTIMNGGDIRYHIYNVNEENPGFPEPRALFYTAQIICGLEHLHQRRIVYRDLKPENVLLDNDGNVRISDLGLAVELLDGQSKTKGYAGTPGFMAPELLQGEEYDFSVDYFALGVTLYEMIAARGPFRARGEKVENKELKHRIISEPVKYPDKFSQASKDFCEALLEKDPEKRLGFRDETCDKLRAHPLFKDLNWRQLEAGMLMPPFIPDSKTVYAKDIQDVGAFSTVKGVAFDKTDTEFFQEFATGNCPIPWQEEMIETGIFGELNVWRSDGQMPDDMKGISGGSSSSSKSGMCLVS

[5] = target: T3, MAP/microtubule affinity-regulating kinase 4 (Homo sapiens) (UniProt Q96L34); assay: Selectivity interaction (KinomeScan (DiscoverX)) EUB0000607a MARK4; conditions: at 10 µM
T3 sequence (whole entry): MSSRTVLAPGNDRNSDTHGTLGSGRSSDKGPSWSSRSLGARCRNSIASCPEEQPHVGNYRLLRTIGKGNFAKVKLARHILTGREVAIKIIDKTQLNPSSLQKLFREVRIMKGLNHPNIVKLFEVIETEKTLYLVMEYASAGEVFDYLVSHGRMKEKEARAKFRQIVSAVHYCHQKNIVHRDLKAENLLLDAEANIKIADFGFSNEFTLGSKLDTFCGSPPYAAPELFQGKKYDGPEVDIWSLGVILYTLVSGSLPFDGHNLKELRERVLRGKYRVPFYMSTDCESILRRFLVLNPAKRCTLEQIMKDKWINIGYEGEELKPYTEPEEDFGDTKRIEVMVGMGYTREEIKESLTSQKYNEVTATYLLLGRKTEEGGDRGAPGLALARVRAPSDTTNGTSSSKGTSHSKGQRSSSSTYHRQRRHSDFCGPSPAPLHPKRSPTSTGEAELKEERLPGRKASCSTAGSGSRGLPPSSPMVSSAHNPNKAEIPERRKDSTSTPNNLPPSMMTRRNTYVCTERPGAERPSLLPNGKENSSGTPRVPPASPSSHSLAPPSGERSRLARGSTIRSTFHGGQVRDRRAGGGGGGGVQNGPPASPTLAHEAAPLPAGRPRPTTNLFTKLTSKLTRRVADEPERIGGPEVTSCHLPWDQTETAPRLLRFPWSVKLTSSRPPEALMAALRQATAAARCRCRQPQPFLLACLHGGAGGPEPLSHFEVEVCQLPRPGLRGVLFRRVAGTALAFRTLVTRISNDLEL

Sequence of Mitogen-activated protein kinase kinase kinase kinase 1 (Homo sapiens) (Q92918 whole entry, looked up): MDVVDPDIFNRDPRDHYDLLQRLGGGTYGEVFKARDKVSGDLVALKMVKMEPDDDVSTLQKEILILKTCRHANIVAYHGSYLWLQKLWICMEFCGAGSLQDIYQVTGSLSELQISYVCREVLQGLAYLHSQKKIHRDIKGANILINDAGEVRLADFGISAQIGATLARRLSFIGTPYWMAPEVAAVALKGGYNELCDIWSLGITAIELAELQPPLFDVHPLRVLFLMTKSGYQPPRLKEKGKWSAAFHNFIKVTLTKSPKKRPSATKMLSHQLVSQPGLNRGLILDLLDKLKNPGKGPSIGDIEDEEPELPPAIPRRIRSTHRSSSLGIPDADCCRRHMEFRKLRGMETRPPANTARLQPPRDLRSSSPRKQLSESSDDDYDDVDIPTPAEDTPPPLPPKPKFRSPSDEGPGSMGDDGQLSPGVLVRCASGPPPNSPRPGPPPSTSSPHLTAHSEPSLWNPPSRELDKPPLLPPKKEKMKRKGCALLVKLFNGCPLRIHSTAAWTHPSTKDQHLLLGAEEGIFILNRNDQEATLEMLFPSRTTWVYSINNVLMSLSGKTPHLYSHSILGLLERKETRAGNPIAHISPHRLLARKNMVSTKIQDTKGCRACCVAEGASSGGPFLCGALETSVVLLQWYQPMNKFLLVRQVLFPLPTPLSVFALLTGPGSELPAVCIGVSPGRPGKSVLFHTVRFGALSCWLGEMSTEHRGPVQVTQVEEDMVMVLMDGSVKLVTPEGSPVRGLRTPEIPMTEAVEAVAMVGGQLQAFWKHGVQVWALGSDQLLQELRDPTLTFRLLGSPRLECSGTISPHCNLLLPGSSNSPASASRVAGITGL

`CN1Cc2nccc(-c3cn(C)nc3-c3ccc(F)cc3)c2C1=O` gave a % of inhibition [1] of -1%.

Work on `CC[C@@H]1[C@H](F)C(=O)N[C@@H]1COc1nccc2cc(C(N)=O)c(OC)cc12` [ZIMLOVISERTIB] yielded a % of inhibition [2] of -4.8%.

`C=CC(=O)Nc1cc(-n2c(=O)ccc3cnc4ccc(-c5ccc(NS(C)(=O)=O)cc5)cc4c32)ccc1C` showed a % of control ([3]; at 1 µM) of 100% and a % of control ([3]; at 10 µM) of 81%.

In the case of `N#Cc1cccc(-c2c[nH]c3ncnc(N4CCOCC4)c23)c1`, the % of control [4] is reported as 74%.

`CNC(=O)Nc1ccc(-c2nc(N3CC4CCC(C3)O4)c3cnn(C4CCC5(CC4)OCCO5)c3n2)cc1` showed a % of control [5] of 94%.

Reference: ChEMBL document CHEMBL5465560, “Selectivity Literature for EUbOPEN Chemogenomic Library” (2024)
